Assay [1] deals with gamma-herpes variant that expresses GFP under a CMV promoter (GHV-Bac-GFP). Briefly: Herpes virus assay: GHV-Bac-GFP infection of 3T3 monolayers, cytopathic effect and GFP spread. The format is cell-based, gamma-herpes virus. Conditions: 3T3 cells, GHV-Bac-GFP; for Herpes phenotype group: 10 μM, after 7 days; for HERPES: compound 10 μM, 7 days. As to the method: All herpes viruses share the property of establishing life-long infection in their host. […] To determine whether tyrosine kinases participate in gamma-herpes virus infections, confluent monolayers of 3T3 cells were exposed and plated in optical 96 well dishes to the library of compounds of the present invention described herein for 1 hour. The cells were then infected with a gamma-herpes variant that expresses GFP under a CMV promoter (GHV-Bac-GFP), and replaced the compounds of the present invention at final concentration of 10 μM.
For orientation: Damage to the host cells serves as the signal in cytopathic effect assays.

The next assay deals with vaccinia virus. The format is cell-based.

The source of these data is patent US8268809B2, “Kinase inhibitors for preventing or treating pathogen infection and method of use thereof” (priority 2006, dated 2012).

“Also recorded” adds a separate entry of the source.

Turning to `Cc1ccc(NC(=O)c2ccc(CN3CCN(C)CC3)cc2)cc1Nc1nccc(-c2cncc(-c3ccncc3)c2)n1` [StiAF3-iAR], in assay [1], the Herpes phenotype group result is on record as “(ii)” and the HERPES entry is “ENTRY OR EGRESS INHIB- ITOR”.

Regarding `COc1ccccc1NS(=O)(=O)c1cccc(Nc2cc(-c3ccc(Cl)cc3)ncn2)c1` [Eph2_wbz 115], the HERPES result in assay [1] is “DE- LAYED CPE”.

Take `O=C(c1ccccc1)c1ccc(-c2ccc3c(-c4ccc(F)cc4)n[nH]c3n2)cc1` [APcK-36]: in assay [1], the Herpes phenotype group entry is reported as “(iii)” and the HERPES entry is given as “DE- LAYED CPE”.

Regarding `CC(=O)Nc1ccc(-c2ccc3c(-c4ccc(Cl)c(Cl)c4)n[nH]c3n2)cc1` [APcK-25], in assay [1], the Herpes phenotype group entry was “(iii)” and the HERPES result is reported as “DE- LAYED CPE”.

Consider `Brc1cnc2c(Nc3ccc(N4CCOCC4)cc3)nccn12` [LG2-77], for which, in assay [1], the Herpes phenotype group result is recorded as “(iii)” and the HERPES entry is “DE- LAYED CPE”.

Take `CCOC(=O)c1ccc(-c2ccc3c(-c4ccc(C)c(F)c4)n[nH]c3n2)cc1` [APcK-51]: in assay [1], the Herpes phenotype group entry is “(iii)” and the HERPES entry is reported as “DE- LAYED CPE”.

As for `CC(=O)Nc1ccc(-c2ccc3c(-c4ccc(Br)cc4F)n[nH]c3n2)cc1` [APcK-21], in assay [1], the Herpes phenotype group entry is “(iii)” and the HERPES result was “DE- LAYED CPE”.

`CC(=O)c1cccc(-c2cnc3c(Nc4ccc(N5CCOCC5)cc4)nccn23)c1` [LG2-81]: in assay [1], the Herpes phenotype group result is “(iii)” and the HERPES result was “DE- LAYED CPE”.

Regarding `CCOC(=O)c1ccc(-c2ccc3c(-c4ccc(Br)cc4F)n[nH]c3n2)cc1` [APcK-50], in assay [1], the Herpes phenotype group result is given as “(iii)” and the HERPES result is recorded as “DE- LAYED CPE”.

As for `Cc1ccc(NC(=O)c2ccc(CN3CCOCC3)cc2)cc1Nc1nccc(-c2cccnc2)n1` [CGP51148 WBZ-4], in assay [1], the Herpes phenotype group result is “(iii)” and the HERPES result is reported as “DE- LAYED CPE”.

On to `CC(=O)Nc1cccc(-c2ccc3c(-c4ccc(Cl)c(F)c4)n[nH]c3n2)c1` [APcK-104], for which, in the assay on vaccinia virus, the “Class category of infected monolayers in plaque assay” value (“Class category of infected monolayers” below) is given as “Class III”, the “VACCINIA PLAQUE ASSAY 2” value is “PINPOINT PLAQUES” and the “VACCINIA Plaque Assay” value is reported as “SMALLER PLAQUES THAN WT. NO COMETS”.

For the compound `CC(=O)Nc1cccc(-c2ccc3c(-c4ccc(Cl)c(Cl)c4)n[nH]c3n2)c1` [APcK-42], in assay [1], the Herpes phenotype group entry is given as “(iii)” and the HERPES result is “DE- LAYED CPE”.

For `Cc1ccc(NC(=O)c2ccc(CN3CCN(C)CC3)cc2)cc1Nc1nccc(-c2cncc(-c3ccncc3)c2)n1` [WBZ-6], the HERPES result in assay [1] was “DE- LAYED CPE”.

For the compound `COc1cc(OC)cc(-c2ccc3c(-c4ccc(F)c(C)c4)n[nH]c3n2)c1` [APcK-109], in the assay on vaccinia virus, the “Class category of infected monolayers” value is listed as “Class II”; the “VACCINIA PLAQUE ASSAY 2” value is given as “SMALL PLAQUES, LARGE TAILS”; the “VACCINIA Plaque Assay” value was “SLIGHTLY SMALLER PLAQUES”.

`Cn1c(=O)c(-c2c(Cl)cccc2Cl)cc2cnc(Nc3ccc(O)cc3)nc21` [YYA190]: the “VACCINIA Plaque Assay” value in the assay on vaccinia virus is “CPE (MONO- LAYER NOT INFECTED WITH VV; DRUG DE- STROYED MONO- LAYER, THOUGH)”.

Regarding `COC(=O)C1(Cc2ccccc2)OC(=O)C(O)=C1c1ccccc1` (centres unmarked) [butyro- lactones-1], in the assay on vaccinia virus, the “Plaque phenotype due to drug treatment (FIGS. 1, 2, 4)” value is on record as “more plaque formations than wild type; also recorded: more plaques than WT” and the “VACCINIA Plaque Assay” value is recorded as “SMALL PLAQUES WITH LARGE TAILS OR CPE”.

Take `CC(=O)Nc1ccc(-c2ccc3c(-c4ccc(Cl)cc4Cl)n[nH]c3n2)cc1` [APcK-26]: in the assay on vaccinia virus, the “Class category of infected monolayers” value was “Class III”; the “Plaque phenotype due to drug treatment (FIGS. 1, 2, 4)” value was “pinpoint plaque formations; also recorded: pinpoint plaques”; the “VACCINIA PLAQUE ASSAY 2” value was “SMALL PLAQUES”; the “VACCINIA Plaque Assay” value was “PINPOINT PLAQUES”.

With `Cc1ccc(NC(=O)c2ccc(CN3CCN(CCO)CC3)cc2)cc1Nc1nccc(-c2cccnc2)n1` [STI-OH], in the assay on vaccinia virus, the “Class category of infected monolayers” value is “Class III”, the “VACCINIA PLAQUE ASSAY 2” value is given as “SMALL PLAQUES” and the “VACCINIA Plaque Assay” value is “PINPOINT PLAQUES”.
